Data: ChEMBL document CHEMBL4610008, “Thiophene bioisosteres of GluN2B selective NMDA receptor antagonists: Synthesis and pharmacological evaluation of [7]annuleno[b]thiophen-6-amines” (Bioorg Med Chem, 2020)

Tests used:
[1] = Cytoprotection against glutamate/glycine-induced cytotoxicity against mouse LTK cells expressing GluN1a/GluN2B assessed as inhibition of cell death incubated for 12 hrs by LDH assay; assay type: functional, cell-based
[2] = biological target: Glutamate receptor ionotropic, NMDA 2B (Homo sapiens, UniProt Q05586+Q13224); experiment: Displacement of [3H]ifenprodil from human recombinant GluN2B expressed in mouse L(tk-) cell membranes co-expressing GluN1a incubated for 120 mins by scintillation counting method
[3] = biological target: Sigma non-opioid intracellular receptor 1 (Cavia porcellus, UniProt Q60492); experiment: Displacement of [3H]-(+)-pentazocine from sigma1 receptor in guinea pig brain membranes incubated for 120 mins by scintillation counting method; assay type: cell membranes, Membrane
[4] = biological target: T1, Sigma intracellular receptor 2 (Rattus norvegicus, UniProt Q5U3Y7); experiment: Displacement of [3H]-di-o-tolylguanidine from sigma2 receptor in rat liver membranes incubated for 120 mins in the presence of sigma1 receptor ligand (+)-pentazocine by scintillation counting method; assay type: cell membranes, Membrane
T1 sequence (Q5U3Y7 whole entry): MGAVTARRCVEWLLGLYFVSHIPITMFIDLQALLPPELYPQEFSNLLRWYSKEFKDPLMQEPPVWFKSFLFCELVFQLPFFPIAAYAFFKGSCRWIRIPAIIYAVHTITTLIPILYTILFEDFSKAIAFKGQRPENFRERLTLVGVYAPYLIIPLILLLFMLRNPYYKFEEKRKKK

[5] = Selectivity index, ratio of Ki for sigma1 receptor in guinea pig brain membranes to Ki for human GluN2B expressed in mouse L(tk-) cell membranes co-expressing GluN1a; assay type: cell-based
[6] = Selectivity index, ratio of Ki for sigma2 receptor in rat liver membranes to Ki for human GluN2B expressed in mouse L(tk-) cell membranes co-expressing GluN1a; assay type: cell-based

Sequence of Glutamate receptor ionotropic, NMDA 2B (Q13224 whole entry, one chain of several): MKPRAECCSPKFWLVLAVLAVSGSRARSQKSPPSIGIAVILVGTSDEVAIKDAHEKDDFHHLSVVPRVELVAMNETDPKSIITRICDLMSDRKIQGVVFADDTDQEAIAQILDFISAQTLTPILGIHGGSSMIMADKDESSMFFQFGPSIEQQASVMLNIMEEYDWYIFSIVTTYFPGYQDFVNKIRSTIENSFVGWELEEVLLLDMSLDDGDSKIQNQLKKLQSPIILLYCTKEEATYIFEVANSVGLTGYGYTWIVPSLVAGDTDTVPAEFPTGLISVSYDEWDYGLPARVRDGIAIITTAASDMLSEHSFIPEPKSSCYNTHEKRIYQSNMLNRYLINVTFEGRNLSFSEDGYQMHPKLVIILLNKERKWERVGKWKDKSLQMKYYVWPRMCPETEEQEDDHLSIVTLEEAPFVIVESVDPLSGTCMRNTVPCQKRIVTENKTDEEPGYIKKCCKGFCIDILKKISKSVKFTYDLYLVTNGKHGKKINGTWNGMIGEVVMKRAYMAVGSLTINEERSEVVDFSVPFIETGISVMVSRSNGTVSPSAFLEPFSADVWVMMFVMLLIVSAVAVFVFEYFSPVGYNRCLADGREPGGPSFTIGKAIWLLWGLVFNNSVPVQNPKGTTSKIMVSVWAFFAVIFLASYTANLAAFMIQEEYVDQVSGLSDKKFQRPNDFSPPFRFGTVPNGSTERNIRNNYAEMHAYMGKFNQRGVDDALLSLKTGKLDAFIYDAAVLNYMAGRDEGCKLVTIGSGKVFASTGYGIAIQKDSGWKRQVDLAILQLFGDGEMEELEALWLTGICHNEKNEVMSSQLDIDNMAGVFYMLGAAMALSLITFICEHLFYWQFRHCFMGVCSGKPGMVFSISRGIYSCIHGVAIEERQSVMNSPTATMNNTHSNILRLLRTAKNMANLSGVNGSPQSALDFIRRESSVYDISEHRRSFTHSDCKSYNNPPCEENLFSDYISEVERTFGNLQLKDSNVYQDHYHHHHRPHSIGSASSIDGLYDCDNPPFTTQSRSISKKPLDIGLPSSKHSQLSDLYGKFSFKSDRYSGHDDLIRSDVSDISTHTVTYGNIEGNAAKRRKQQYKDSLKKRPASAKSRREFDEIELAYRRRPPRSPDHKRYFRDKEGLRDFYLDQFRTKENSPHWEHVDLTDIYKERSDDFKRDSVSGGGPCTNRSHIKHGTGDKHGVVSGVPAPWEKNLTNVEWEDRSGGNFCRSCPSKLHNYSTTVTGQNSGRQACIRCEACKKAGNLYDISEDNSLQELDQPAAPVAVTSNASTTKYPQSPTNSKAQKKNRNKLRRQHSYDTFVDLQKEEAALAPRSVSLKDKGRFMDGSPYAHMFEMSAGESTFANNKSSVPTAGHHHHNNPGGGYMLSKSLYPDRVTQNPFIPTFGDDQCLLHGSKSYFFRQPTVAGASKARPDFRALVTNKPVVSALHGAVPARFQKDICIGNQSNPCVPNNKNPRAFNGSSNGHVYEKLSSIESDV
Sequence of Sigma non-opioid intracellular receptor 1 (Q60492 whole entry): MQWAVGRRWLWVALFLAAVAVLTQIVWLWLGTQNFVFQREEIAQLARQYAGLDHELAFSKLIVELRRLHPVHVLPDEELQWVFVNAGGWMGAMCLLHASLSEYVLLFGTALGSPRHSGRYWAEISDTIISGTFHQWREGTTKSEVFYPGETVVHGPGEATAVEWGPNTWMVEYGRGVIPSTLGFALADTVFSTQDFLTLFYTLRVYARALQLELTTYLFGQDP

Ki [2]	Ki [3]	Ki [4]	Compound	IC50 [1]	Ratio Ki [5]	Ratio Ki [6]
			COc1ccc2c(c1)CC[C@H](NCCCc1ccccc1)C[C@@H]2O (relative stereo)	12 nM		
141 nM	6.4 nM	21 nM	CN(CCCc1ccccc1)C1CCc2cc(CO)sc2CC1 (configuration not stated)			
51 nM	17 nM	33 nM	CCN(CCCc1ccccc1)C1CCc2ccsc2CC1 (configuration not stated)			
23 nM	14 nM	13 nM	Brc1cc2c(s1)CCC(NCCCCc1ccccc1)CC2 (configuration not stated)			
196 nM	59 nM	141 nM	CCN(CCc1ccccc1)C1CCc2ccsc2CC1 (configuration not stated)			
726 nM	56 nM	48 nM	CN(CCc1ccccc1)C1CCc2cc(CO)sc2CC1 (configuration not stated)			
764 nM	84 nM	73 nM	OCc1cc2c(s1)CCC(NCCCCc1ccccc1)CC2 (configuration not stated)			
13 nM	41 nM	43 nM	Brc1cc2c(s1)CCC(NCCCc1ccccc1)CC2 (configuration not stated)		3	3
2.1 nM			Clc1ccc2c(c1)CCC(NCCCc1ccccc1)CC2 (configuration not stated)			
9 nM	17 nM	12 nM	CN(CCCCc1ccccc1)C1CCc2ccsc2CC1 (configuration not stated)		1.5 to 2	1.5 to 2
60 nM	181 nM	63 nM	Oc1ccc(-c2cc3c(s2)CCC(NCCCc2ccccc2)CC3)cc1 (configuration not stated)			
72 nM	49 nM	91 nM	CN(Cc1ccccc1)C1CCc2ccsc2CC1 (configuration not stated)			
33 nM	133 nM	56 nM	c1ccc(CCNC2CCc3ccsc3CC2)cc1 (configuration not stated)			
5.9 nM	187 nM	5.1 nM	c1ccc(CCCNC2CCc3ccsc3CC2)cc1 (configuration not stated)			
33 nM	12 nM	46 nM	CCN(CCCCc1ccccc1)C1CCc2ccsc2CC1 (configuration not stated)			
61 nM	60 nM	149 nM	CCN(Cc1ccccc1)C1CCc2ccsc2CC1 (configuration not stated)			
6 nM	10 nM	13 nM	CN(CCCc1ccccc1)C1CCc2ccsc2CC1 (configuration not stated)		2	2
11 nM	62 nM	5.7 nM	c1ccc(CCCCNC2CCc3ccsc3CC2)cc1 (configuration not stated)			
183 nM	61 nM	30 nM	OCc1cc2c(s1)CCC(NCCCc1ccccc1)CC2 (configuration not stated)			

Compound	Ki [2]	Ki [3]	Ki [4]	IC50 [1]	Ratio Ki [5]	Ratio Ki [6]
CN(CCc1ccccc1)C1CCc2ccsc2CC1 (configuration not stated)	130 nM	42 nM	63 nM			
